These results are taken from patent publication US6727264B1 (Synaptic Pharmaceutical Corporation, priority 2001, dated 2004).

Read-outs that look alike come from different tables or passages of the source.

The experiment has as its target rat MCH-1 (Rattus norvegicus, UniProt P97639). As to the kind of experiment: Radioligand binding assay at cloned rat MCH1 receptor ([3H] Compound A). The arrangement: host or cells: Peak rapid 293 (Peakr293) cells, transient calcium phosphate transfection, membranes. Conditions: cloned rat MCH1 receptor, 0.08 nM [3H] Compound A, read-out: Ki (nM) rMCH1.

Chain of rat MCH-1 (P97639 whole entry): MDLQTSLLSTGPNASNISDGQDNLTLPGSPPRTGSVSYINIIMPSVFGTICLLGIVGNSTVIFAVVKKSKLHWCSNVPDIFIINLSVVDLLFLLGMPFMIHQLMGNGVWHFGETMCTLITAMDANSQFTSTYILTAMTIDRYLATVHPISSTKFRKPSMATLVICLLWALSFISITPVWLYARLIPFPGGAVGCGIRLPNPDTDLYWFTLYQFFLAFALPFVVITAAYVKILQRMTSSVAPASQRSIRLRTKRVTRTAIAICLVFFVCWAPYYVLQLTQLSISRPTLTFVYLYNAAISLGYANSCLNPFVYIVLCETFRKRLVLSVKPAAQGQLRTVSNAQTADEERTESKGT

For orientation: Ki means the equilibrium dissociation constant of an inhibitor or competing ligand from its target. As for `COc1ccc(OC(CCN2CCC(c3cccc(NC(=O)C(C)C)c3)CC2)c2ccc(Br)cc2)cc1` (stereo not drawn) [Example 170], the inhibition constant Ki (membranes from Peakr293 cells) was determined as 3 nM.

As for `CC(C)C(=O)Nc1cccc(C2CCN(Cc3cc4ccccc4s3)CC2)c1` [Example 253], where the note is “membranes from Peakr293 cells”, the Ki came out at 362 nM.

For the compound `Cc1ccccc1OC(CCN1CCC(c2cccc(NC(=O)C(C)C)c2)CC1)c1ccc(Cl)cc1` (stereo not drawn) [Example 126], where the note is “membranes from Peakr293 cells”, the Ki was 13.8 nM. Same read-out and setting: the result for `CC(C)C(=O)Nc1cccc(C2CCN(CCCNS(=O)(=O)c3ccc(Cl)c([N+](=O)[O-])c3)CC2)c1` [Example 104] reads 11.2 nM. With `CC(C)C(=O)Nc1cccc(C2CCN(CCCC/C(=N\Nc3ccc(OC(F)(F)F)cc3)c3ccc([N+](=O)[O-])cc3)CC2)c1` [Example 780], where the note is “Peakr293 cell membranes”, the Ki worked out at 64.3 nM. Turning to `CC(C)C(=O)Nc1cccc(C2CCN(CCCCC(Oc3ccc(Cl)cc3)c3ccccc3)CC2)c1` (stereo not drawn) [Example 921], the Ki (Peakr293 cell membranes) amounted to 6.8 nM. Consider `CCC(=O)Nc1cccc(C2CCN(Cc3cn(-c4ccccc4F)c4cc(Cl)ccc34)CC2)c1` [Example 472], for which, where the note is “Peakr293 cell membranes”, the Ki was determined as 12.2 nM. The same measure, in the same setting: the value for `O=C(CCCCN1CCC(c2cccc(NC(=O)C3CC3)c2)CC1)c1cccc(C(F)(F)F)c1` [Example 568] was 68.8 nM; that for `Cc1cccc(-n2cc(CN3CCC(c4cccc(NC(=O)C(C)C)c4)CC3)c3ccccc32)c1` [Example 441] was 10.1 nM. Take `CC(C)C(=O)Nc1cccc(C2CCN(CCCCCCC(O)c3ccccc3)CC2)c1` (stereo not drawn) [Example 282]: the Ki (membranes from Peakr293 cells) is 23.5 nM.

`CSc1ccccc1NC(=O)NCCCN1CCC(c2cccc(NC(=O)C(C)C)c2)CC1` [Example 619]: where the note is “Peakr293 cell membranes”, the Ki is 178 nM. Same read-out and setting: the result for `CC(C)C(=O)Nc1cccc(C2CCN(CCC(c3ccccc3)c3ccccc3)CC2)c1` [Example 802] reads 36.7 nM. Take `CCC(=O)Nc1cccc(C2CCN(CCCCC(=O)c3cccc(C(F)(F)F)c3)CC2)c1` [Example 571]: the inhibition constant Ki (Peakr293 cell membranes) was determined as 88.3 nM. For the compound `CC(C)C(=O)Nc1cccc(C2CCN(C[C@H](C)COc3ccccc3F)CC2)c1` [Example 362], the Ki (membranes from Peakr293 cells) was found to be 281 nM. Turning to `CC(C)C(=O)Nc1cccc(C2CCN(Cc3c[nH]c4c(-c5ccc6ccccc6c5)cccc34)CC2)c1` [Example 517], for the setting “Peakr293 cell membranes”, the Ki was found to be 287 nM.

With `CC(C)C(=O)Nc1cccc(C2CCN(Cc3cccc4c3ccn4-c3ccc(F)cc3)CC2)c1` [Example 836], the Ki (Peakr293 cell membranes) is 7.8 nM. Still for that read-out and setting: the result for `O=C(Nc1cccc(C2CCN(Cc3c[nH]c4c([N+](=O)[O-])cccc34)CC2)c1)C1CC1` [Example 514] reads 151 nM. Turning to `CC(C)C(=O)Nc1cccc(C2CCN(CCc3cn(-c4ccccc4)c4ccccc34)CC2)c1` [Example 408], the inhibitory constant (Ki) (Peakr293 cell membranes) is 21.6 nM. As to `COc1ccc(OC(CCCCN2CCC(c3cccc(NC(=O)C(C)C)c3)CC2)c2ccc(Cl)cc2)cc1` (stereo not drawn) [Example 925], where the note is “Peakr293 cell membranes”, the Ki worked out at 13.4 nM. With `COc1cccc(OC(CCN2CCC(c3cccc(NC(=O)C(C)C)c3)CC2)c2ccc(Br)cc2)c1` (stereo not drawn) [Example 147], the Ki (membranes from Peakr293 cells) amounted to 8.7 nM. Consider `CC(C)C(=O)Nc1cccc(C2CCN(Cc3ccc(Oc4ccc(Cl)c(Cl)c4)cc3)CC2)c1` [Example 112], for which the Ki (membranes from Peakr293 cells) is 6.1 nM.

As to `CC(C)C(=O)Nc1cccc(C2CCN(Cc3cn(-c4ccccc4[N+](=O)[O-])c4ccccc34)CC2)c1` [Example 446], the Ki (Peakr293 cell membranes) came to 17.9 nM.

`CC(C)C(=O)Nc1cccc(C2CCN(CC[C@H](NC(=O)c3cccnc3)c3ccccc3)CC2)c1` [Example 319]: the Ki (membranes from Peakr293 cells) is 89.8 nM. Regarding `CC(C)C(=O)Nc1cccc(C2CCN(CCC(Oc3c(Cl)cccc3Cl)c3ccc(F)cc3)CC2)c1` (stereo not drawn) [Example 141], where the note is “membranes from Peakr293 cells”, the Ki was found to be 61 nM. Regarding `Cc1ccc2[nH]c(-c3ccc(Cl)cc3)c(CCCN3CCC(c4cccc(NC(=O)C(C)C)c4)CC3)c2c1` [Example 720], where the note is “Peakr293 cell membranes”, the Ki came to 12.5 nM.

With `CC(C)C(=O)Nc1cccc(C2CCN(CCCC(=O)c3ccc(F)cc3)CC2)c1` [Example 941], the Ki (Peakr293 cell membranes) stood at 15.2 nM. For `COc1ccccc1-n1cc(CN2CCC(c3cccc(NC(=O)C(C)C)c3)CC2)c2ccccc21` [Example 447], the Ki (Peakr293 cell membranes) stood at 9.8 nM. Turning to `CC(C)C(=O)Nc1cccc(C2CCN(CCCSc3ccccc3)CC2)c1` [Example 581], the Ki (Peakr293 cell membranes) was 86.4 nM. On to `CC(=O)c1cccc(O[C@H](CN2CCC(c3cccc(NC(=O)C(C)C)c3)CC2)c2ccccc2)c1` [Example 333], for which the inhibition constant Ki (membranes from Peakr293 cells) is 568 nM. For `O=C(CCCCN1CCC(c2cccc(NC(=O)C3CC3)c2)CC1)c1ccc(Cl)cc1` [Example 558], the Ki (Peakr293 cell membranes) was 20.2 nM.

As for `CCC(=O)Nc1cccc(C2CCN(CCCSc3ccccc3)CC2)c1` [Example 579], the Ki (Peakr293 cell membranes) was found to be 131 nM. Still for that read-out and setting: the value for `CC(C)C(=O)Nc1cccc(C2CCN(CCCCC(Oc3ccc(F)cc3)c3ccc(Cl)cc3)CC2)c1` (stereo not drawn) [Example 923] was 1.3 nM; that for `CCCC(=O)Nc1ccc(C2CCN(Cc3ccc4c(c3)c3ccccc3n4CC)CC2)cc1` [Example 820] was 109 nM. Consider `CC(C)C(=O)Nc1cccc(C2CCN(CCCc3c(-c4ccccc4)n(C)c4ccccc34)CC2)c1` [Example 391], for which the Ki (membranes from Peakr293 cells) came to 21.9 nM. On to `COc1ccc2[nH]c(-c3ccc(F)cc3)c(CCCN3CCC(c4cccc(NC(=O)C(C)C)c4)CC3)c2c1` [Example 692], for which the Ki (Peakr293 cell membranes) came to 2 nM.

Turning to `CC(C)C(=O)Nc1cccc(C2CCN(Cc3cn(C)c4ccccc34)CC2)c1` [Example 426], for the setting “Peakr293 cell membranes”, the Ki is 556 nM.

In the case of `COc1ccc(OCCCCN2CCC(c3cccc(NC(=O)C(C)C)c3)CC2)cc1` [Example 377], the inhibitory constant (Ki) (membranes from Peakr293 cells) is 712 nM. On to `COc1ccc(C(=O)CCCN2CCC(c3cccc(NC(=O)C4CC4)c3)CC2)cc1` [Example 538], for which the inhibitory constant (Ki) (Peakr293 cell membranes) was found to be 36.3 nM. For `CC(C)C(=O)Nc1cccc(C2CCN(CCCc3c(-c4ccccc4F)[nH]c4ccccc34)CC2)c1` [Example 693], under “Peakr293 cell membranes”, the Ki came to 0.4 nM.

With `Cc1ccccc1-c1ccc2c(CN3CCC(c4cccc(NC(=O)C(C)C)c4)CC3)c[nH]c2c1` [Example 519], the Ki (Peakr293 cell membranes) is 80.9 nM. Consider `COc1ccc2[nH]cc(CN3CCC(c4cccc(NC(=O)C(C)C)c4)CC3)c2c1` [Example 449], for which the Ki is, setting by setting: (membranes from Peakr293 cells) 623 nM; (Peakr293 cell membranes) 623 nM. On to `CC(=O)c1cccc(O[C@H](CCN2CCC(c3cccc(N(C)C(=O)C(C)C)c3)CC2)c2ccccc2)c1` [Example 354], for which, for the setting “membranes from Peakr293 cells”, the Ki was found to be 81.6 nM. As to `CC(C)C(=O)Nc1cccc(C2CCN(Cc3c(-c4ccccc4)n(-c4ccccc4)c4ccccc34)CC2)c1` [Example 433], where the note is “Peakr293 cell membranes”, the Ki is 30.4 nM. For the compound `Cc1onc(-c2ccccc2Cl)c1C(=O)OC(CCCN1CCC(c2cccc(NC(=O)C(C)C)c2)CC1)c1ccccc1` (stereo not drawn) [Example 300, 4-{4-[3-(ISOBUTYRYLAMINO)PHENYL]-1-PIPERIDINYL}-1-PHENYLBUTYL 3-(2-CHLOROPHENYL)-5-METHYL-4-ISOXAZOLECARBOXYLATE], the Ki (membranes from Peakr293 cells) turned out to be 7.6 nM. The same measure, in the same setting: the value for `CCOC(=O)c1c(CN2CCC(c3cccc(NC(=O)C(C)C)c3)CC2)c(C)n(-c2ccccc2)c1C` [Example 221, ETHYL 4-({4-[3-(ISOBUTYRYLAMINO)PHENYL]-1-PIPERIDINYL}METHYL)-2,5-DIMETHYL-1-PHENYL-1H-PYRROLE-3-CARBOXYLATE] was 546 nM. With `CC(C)C(=O)Nc1cccc(C2CCN(CCCc3c(-c4ccc(F)cc4)n(-c4ccccc4)c4ccccc34)CC2)c1` [Example 696], the Ki (Peakr293 cell membranes) is 48.3 nM.

`CC(C)C(=O)Nc1cccc(C2CCN(CCCNC(=O)c3ccc(Oc4cc(Cl)cc(Cl)c4)o3)CC2)c1` [Example 642]: the Ki (Peakr293 cell membranes) came to 8.3 nM.

As for `CC(C)C(=O)Nc1cccc(C2CCN(Cc3ccc(-c4csnn4)cc3)CC2)c1` [Example 263], where the note is “membranes from Peakr293 cells”, the Ki is 156 nM. In the case of `Cc1ccc(OCCCN2CCC(c3cccc(NC(=O)C(C)C)c3)CC2)cc1C` [Example 349], the Ki (membranes from Peakr293 cells) turned out to be 20.4 nM. `CC(C)C(=O)Nc1cccc(C2CCN(CCC(Oc3cccc(Cl)c3)c3ccc(F)cc3)CC2)c1` (stereo not drawn) [Example 143]: the inhibitory constant (Ki) (membranes from Peakr293 cells) turned out to be 8.7 nM. Regarding `CC(C)C(=O)Nc1cccc(C2CCN(CC[C@H](NC(=O)c3cccc(Cl)c3)c3ccccc3)CC2)c1` [Example 305], for the setting “membranes from Peakr293 cells”, the Ki is 177 nM. With `CC(C)C(=O)Nc1cccc(C2CCN(CCCc3c(-c4ccc(I)cc4)[nH]c4c3ccc3ccccc34)CC2)c1` [Example 749], the Ki (Peakr293 cell membranes) was 23.2 nM. As for `CC(C)C(=O)Nc1cccc(C2CCN(Cc3c[nH]c4ccc([N+](=O)[O-])cc34)CC2)c1` [Example 429], under “Peakr293 cell membranes”, the Ki was found to be 121 nM. Still for that read-out and setting: the result for `Cc1ccc2[nH]c(-c3cccc(F)c3)c(CCCN3CCC(c4cccc(NC(=O)C(C)C)c4)CC3)c2c1` [Example 706] reads 4.2 nM; that for `CC(C)C(=O)Nc1cccc(C2CCN(CCCCCC(Oc3ccc(Cl)cc3)c3ccccc3)CC2)c1` (stereo not drawn) [Example 904], 14.2 nM. Turning to `CC(C)C(=O)Nc1cccc(C2CCN(CC[C@H](NC(=O)c3ccc(F)c(F)c3)c3ccccc3)CC2)c1` [Example 320], the Ki (membranes from Peakr293 cells) was 10.6 nM. As to `CCC(=O)Nc1cccc(C2CCN(CCCC(=O)c3ccc(Cl)cc3)CC2)c1` [Example 532], the Ki (Peakr293 cell membranes) came out at 8.7 nM.

On to `CC(C)C(=O)Nc1cccc(C2CCN(C(C)c3csc(-c4ccccc4)n3)CC2)c1` (stereo not drawn) [Example 201], for which the Ki (membranes from Peakr293 cells) was 996 nM. Consider `CC(C)C(=O)Nc1cccc(C2CCN(CCCc3c(-c4cccc(Cl)c4)n(C)c4ccccc34)CC2)c1` [Example 724], for which the Ki (Peakr293 cell membranes) is 5 nM. On the same count and under the same terms, the value for `Cc1onc(-c2c(Cl)cccc2Cl)c1C(=O)NCCCCN1CCC(c2cccc(NC(=O)C(C)C)c2)CC1` [Example 651] was 16.7 nM; that for `COc1cccc(-n2ccc3c(CN4CCC(c5cccc(NC(=O)C(C)C)c5)CC4)cccc32)c1` [Example 856] was 123 nM. Same read-out and setting: the value for `CCC(=O)Nc1cccc(C2CCN(Cc3cn(-c4cccc(Cl)c4)c4cc(Cl)ccc34)CC2)c1` [Example 478] was 11.7 nM; that for `CC(C)C(=O)Nc1cccc(C2CCN(CCCCCC(Oc3ccc(F)cc3)c3ccccc3)CC2)c1` (stereo not drawn) [Example 909] was 10 nM; that for `O=C(Nc1cccc(C2CCN(CCCSc3ccccc3)CC2)c1)C1CC1` [Example 580] was 54 nM. With `Cc1ccccc1-n1ccc2cc(CN3CCC(c4cccc(NC(=O)C(C)C)c4)CC3)ccc21` [Example 847], the inhibition constant Ki (Peakr293 cell membranes) is 10.2 nM.
